Test results from patent US11484535B2, “Liquid formulations of (S)-N-(5-((R)-2-(2,5-difluorophenyl)-pyrrolidin-1-yl)-pyrazolo[1,5-a] pyrimidin-3-yl)-3-hydroxypyrrolidine-1-carboxamide” (Loxo Oncology, Inc., priority 2016, dated 2022).
Structures can show the parent of a compound that is named as a salt.

Experiments:
[1] = Accelerated stability study in an LDPE bag at 40° C./75% RH for five weeks; type: physicochemical
[2] = system: Infantile Fibrosarcoma with NTRK3-ETV6 Fusion; test: Phase 1 pediatric dose-escalation study (NCT02637687), oral liquid formulation of Compound I-HS, case of one patient
[3] = Dynamic vapor sorption (DVS) isotherm, hygroscopicity; type: physicochemical
Method: For the DVS measurement a sample of crystalline form (I-HS) was cycled through changing humidity conditions to determine its hygroscopicity. The sample was analyzed using a Surface Measurement System DVS-1 Dynamic Vapor Sorption System. […] Data was collected in 1 minute intervals. Nitrogen was used as the carrier gas. […] After completion of the sorption cycle, the sample was dried using the same procedure, but all the way down to 0% RH and finally taken back to the starting point of 20% RH. The weight change during the sorption/desorption cycles were plotted, allowing for the hygroscopic nature of the sample to be determined.
A small increase in mass of about 1.7% was observed between 0% and 90% RH during the sorption cycle.

SMILES | change in chemical impurity levels [1] | reduction in the size and enhancement of the mass from baseline ([2]; MR of the brain and neck, end of cycle 1 (day 28), BID dosing, patient) | response on repeat scans ([2]; end of Cycle 2, MR of the brain and neck) | adverse events related to the compound ([2]; first two cycles (28-day cycles)) | hygroscopicity by DVS ([3]; 20-90% RH ramp, 10% increments) | change in crystalline form during DVS (XRPD post vs pre DVS) ([3]; XRPD after DVS analysis)
O=C(Nc1cnn2ccc(N3CCC[C@@H]3c3cc(F)ccc3F)nc12)N1CC[C@H](O)C1.O=S(=O)(O)O [AM(HS), (S)—N-(5-((R)-2-(2,5-difluorophenyl)-pyrrolidin-1-yl)-pyrazolo[1,5-a]pyrimidin-3-yl)-3-hydroxypyrrolidine-1-carboxamide hydrogen sulfate] | neither the AM(HS) or crystalline form (I-HS) exhibited a significant changes in chemical impurity levels | – | – | – | – | –
O=C(Nc1cnn2ccc(N3CCC[C@@H]3c3cc(F)ccc3F)nc12)N1CC[C@H](O)C1 [Compound I-HS, (S)—N-(5-((R)-2-(2,5-difluorophenyl)-pyrrolidin-1-yl)-pyrazolo[1,5-a]pyrimidin-3-yl)-3-hydroxypyrrolidine-1-carboxamide hydrogen sulfate] | neither the AM(HS) or crystalline form (I-HS) exhibited a significant changes in chemical impurity levels | more than 90% | partial response | no adverse events | non-hygroscopic | no change
